For 41 compounds, IC50 results are on record in patent US20170037028A1 (BAYER PHARMA AKTIENGESELLSCHAFT, priority 2013, published 2017).

A word on the IC50: it is the concentration at which inhibition is half-maximal.

The target of this assay is T1, GLUT1 (Homo sapiens, UniProt P11166).
T1 sequence (P11166 1-492): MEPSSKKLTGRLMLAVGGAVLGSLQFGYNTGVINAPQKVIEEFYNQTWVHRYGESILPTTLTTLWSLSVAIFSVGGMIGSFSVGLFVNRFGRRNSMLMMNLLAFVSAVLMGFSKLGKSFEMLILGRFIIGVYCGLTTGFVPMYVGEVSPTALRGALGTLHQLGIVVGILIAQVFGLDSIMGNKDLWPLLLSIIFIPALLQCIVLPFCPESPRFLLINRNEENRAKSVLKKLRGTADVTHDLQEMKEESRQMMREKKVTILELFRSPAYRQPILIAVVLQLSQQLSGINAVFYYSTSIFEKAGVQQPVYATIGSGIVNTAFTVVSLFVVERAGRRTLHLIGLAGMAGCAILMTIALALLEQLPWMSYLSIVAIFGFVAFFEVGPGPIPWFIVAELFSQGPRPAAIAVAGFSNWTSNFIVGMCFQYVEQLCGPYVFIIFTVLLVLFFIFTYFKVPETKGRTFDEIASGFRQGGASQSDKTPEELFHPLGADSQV
The assay can be described thus: Indirect measurement of GLUT1 activity by quantification of intracellular ATP levels (glucose induced ATP increase). Set-up: endogenous in cells; host or cells: DLD1 or CHO-K1. It is filed as cell-based. The conditions noted are these: read-out: IC50 regarding glucose induced ATP increase (GLUT1 inhibition). Summed up:
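Intracellular ATP was measured by CellTiter-Glo luminescence as an indirect readout of transport: glucose-driven for GLUT1, fructose-driven for GLUT2. DLD1 or CHO-K1 cells were used alongside an oxidative phosphorylation inhibitor. Beforehand, cells were held overnight in glucose-free 1% FCS medium to deplete ATP.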
As for `Cc1nn(Cc2ccc(C(=O)NCCCO)cc2)c(C)c1NC(=O)c1cc(C(F)(F)F)nc2ccc(Br)cc12` [Example 1051], the IC50 stood at 11.8 nM.
As for `Cc1nn(Cc2ccc(C(=O)NCCN3CCOCC3)cn2)c(C)c1NC(=O)c1cc(C(F)(F)F)nc2ccc(Br)cc12` [Example 1191], the IC50 stood at 335 nM.
Consider `Cc1c(NC(=O)c2cc(C(N)=O)nc3ccccc23)c(C(=O)N(C)C)nn1Cc1ccc(F)cc1` [Example 1214], for which the half-maximal inhibitory concentration (IC50) worked out at 622 nM.
For `COc1cccc(Cn2nc(C)c(NC(=O)c3cc(C(N)=O)nc4cc(F)ccc34)c2C)c1` [Example 1459], the half-maximal inhibitory concentration (IC50) amounted to 9.8 nM.
For the compound `Cc1nn(CC(=O)N(C)c2ccc(F)cc2)c(C)c1NC(=O)c1cc(C(N)=O)nc2ccccc12` [Example 1693], the IC50 was found to be 43.6 nM.
As for `CCc1nc(Cn2nc(C(F)(F)F)c(NC(=O)c3cc(C(N)=O)nc4cc(F)c(Cl)cc34)c2C)no1` [Example 409, 6-chloro-N^4-{1-[(5-ethyl-1,2,4-oxadiazol-3-yl)methyl]-5-methyl-3-(trifluoromethyl)-1H-pyrazol-4-yl}-7-fluoroquinoline-2,4-dicarboxamide], the IC50 worked out at 5.5 nM.
In the case of `Cc1nn(Cc2ccc(F)cc2)c(C)c1NC(=O)c1cc(C(F)(F)F)nc2cccc(F)c12` [Example 26, 5-fluoro-N-[1-(4-fluorobenzyl)-3,5-dimethyl-1H-pyrazol-4-yl]-2-(trifluoromethyl)quinoline-4-carboxamide], the IC50 came to 15.7 nM.
In the case of `Cc1nn(Cc2ccc(C(=O)N3CCOCC3)cn2)c(C)c1NC(=O)c1cc(C(F)(F)F)nc2ccc(Br)cc12` [Example 1234], the IC50 came out at 1180 nM.
Under `Cc1c(NC(=O)c2cc(C(F)(F)F)nc3ccc(Br)cc23)c(C(F)(F)F)nn1CCc1ccc(F)cc1` [Example 1373] stands 1990 nM; under `Cc1nn(Cc2nc(C3CC3)no2)c(C)c1NC(=O)c1cc(C(N)=O)nc2ccccc12` [Example 1501], 73.7 nM; under `Cc1nn(CC2CCCCC2)c(C)c1NC(=O)c1cc(C(F)(F)F)nc2cc(F)c(F)cc12` [Example 195, N-[1-(cyclohexylmethyl)-3,5-dimethyl-1H-pyrazol-4-yl]-6,7-difluoro-2-(trifluoromethyl)quinoline-4-carboxamide], 272 nM.
On to `Cc1nn(Cc2ccc(F)cc2)c(C)c1NC(=O)c1cc(C2CC2)nc2ccccc12` [Example 19, 2-cyclopropyl-N-[1-(4-fluorobenzyl)-3,5-dimethyl-1H-pyrazol-4-yl]quinoline-4-carboxamide], for which the half-maximal inhibitory concentration (IC50) turned out to be 12.7 nM.
Regarding `Cc1c(NC(=O)c2cc(C(N)=O)nc3cc(F)c(F)cc23)c(C(F)(F)F)nn1Cc1ccc(C#N)cc1F` [Example 304, N^4-[1-(4-cyano-2-fluorobenzyl)-5-methyl-3-(trifluoromethyl)-1H-pyrazol-4-yl]-6,7-difluoroquinoline-2,4-dicarboxamide], the IC50 turned out to be 3.6 nM.
Take `Cc1nn(CC2CCN(S(=O)(=O)C3CC3)CC2)c(C)c1NC(=O)c1cc(C(N)=O)nc2ccccc12` [Example 1516]: the IC50 amounted to 26.1 nM.
Then `COc1ccccc1Cn1nc(C)c(NC(=O)c2cc(C)nc3ccc(C)cc23)c1C` [Example 1232], with 1050 nM; and `Cc1nn(Cc2ccc(C(=O)N[C@H]3CCCC[C@@H]3O)cc2)c(C)c1NC(=O)c1cc(C(F)(F)F)nc2ccc(Br)cc12` [Example 1215], with 649 nM.
As to `Cc1ccc(CCNC(=O)c2ccc(Cn3nc(C)c(NC(=O)c4cc(C(F)(F)F)nc5ccc(Br)cc45)c3C)cc2)cc1` [Example 1210], the concentration for half-maximal inhibition (IC50) is 572 nM.
Take `Cc1c(NC(=O)c2cc(C(N)=O)nc3ccccc23)c(C#N)nn1Cc1ccc(F)cc1` [Example 308, N^4-[3-cyano-1-(4-fluorobenzyl)-5-methyl-1H-pyrazol-4-yl]quinoline-2,4-dicarboxamide]: the 50% inhibitory concentration (IC50) was 2.7 nM.
Regarding `Cc1nn(Cc2cccc(S(C)(=O)=O)c2)c(C)c1NC(=O)c1cc(C(N)=O)nc2cc(F)c(Cl)cc12` [Example 1643], the IC50 amounted to 34.4 nM.
Turning to `COCCNc1ccc2nc(C(N)=O)cc(C(=O)Nc3c(C(F)(F)F)nn(Cc4ccc(C#N)cc4)c3C)c2c1` [Example 344, N^4-[1-(4-cyanobenzyl)-5-methyl-3-(trifluoromethyl)-1H-pyrazol-4-yl]-6-[(2-methoxyethyl)amino]quinoline-2,4-dicarboxamide], the IC50 was found to be 5.8 nM.
With `Cc1nn(CC2CCNCC2)c(C)c1NC(=O)c1cc(C(F)(F)F)nc2ccc(Br)cc12` [Example 1222], the IC50 was determined as 883 nM.
With `Cc1nn(CCN2CCN(C)CC2)c(C)c1NC(=O)c1cc(C(F)(F)F)nc2ccc(Br)cc12` [Example 1279], the IC50 was 3930 nM.
`CCc1cc(Cn2nc(C(F)(F)F)c(NC(=O)c3cc(C(N)=O)nc4cc(F)ccc34)c2C)on1` [Example 1556]: the IC50 turned out to be 41.7 nM.
As to `Cc1nn(Cc2ccc(C(=O)Nc3ccccc3)cc2)c(C)c1NC(=O)c1cc(C(F)(F)F)nc2ccc(Br)cc12` [Example 134, 6-bromo-N-{3,5-dimethyl-1-[4-(phenylcarbamoyl)benzyl]-1H-pyrazol-4-yl}-2-(trifluoromethyl)quinoline-4-carboxamide], the IC50 was found to be 6.6 nM.
Take `Cc1nn(Cc2ccc(F)cc2)c(C)c1NC(=O)c1cc(C(F)(F)F)nc2cccc(Br)c12` [Example 34, 5-bromo-N-[1-(4-fluorobenzyl)-3,5-dimethyl-1H-pyrazol-4-yl]-2-(trifluoromethyl)quinoline-4-carboxamide]: the half-maximal inhibitory concentration (IC50) amounted to 25.2 nM.
Then `Cc1c(NC(=O)c2cc(C(N)=O)nc3cc(F)ccc23)c(C(F)(F)F)nn1Cc1ccc(S(C)(=O)=O)cc1` [Example 1429], with 29.4 nM; and `Cc1cc(Cn2nc(C)c(NC(=O)c3cc(C(N)=O)nc4cc(F)c(Cl)cc34)c2C)no1` [Example 412, 6-chloro-N^4-{3,5-dimethyl-1-[(5-methyl-1,2-oxazol-3-yl)methyl]-1H-pyrazol-4-yl}-7-fluoroquinoline-2,4-dicarboxamide], with 2.1 nM.
In the case of `Cc1nn(Cc2ccc(C(=O)NCc3cccc(F)c3)cc2)c(C)c1NC(=O)c1cc(C(F)(F)F)nc2ccc(Br)cc12` [Example 1163], the half-inhibitory concentration (IC50) was 166 nM.
Under `Cc1nn(Cc2ccc(C(=O)N[C@H]3CC[C@@H](O)CC3)cc2)c(C)c1NC(=O)c1cc(C(F)(F)F)nc2ccc(Br)cc12` [Example 1062] stands 16.4 nM.
For `Cc1nn(Cc2ccc(F)c(F)c2)c(C)c1NC(=O)c1cc(C(F)(F)F)nc2cc(F)c(F)cc12` [Example 177, N-[1-(3,4-difluorobenzyl)-3,5-dimethyl-1H-pyrazol-4-yl]-6,7-difluoro-2-(trifluoromethyl)quinoline-4-carboxamide], the concentration for half-maximal inhibition (IC50) came to 73.9 nM.
As to `CCc1ccc(Cn2nc(C(F)(F)F)c(NC(=O)c3cc(C(N)=O)nc4ccccc34)c2C)cc1` [Example 1413], the IC50 was found to be 1.1 nM.
On to `CC(=O)c1ccc(Cn2nc(C)c(NC(=O)c3cc(C(N)=O)nc4cccc(F)c34)c2C)cc1` [Example 1609], for which the IC50 was found to be 1.2 nM.
For `Cc1cccc2nc(C(N)=O)cc(C(=O)Nc3c(C(F)(F)F)nn(Cc4ccc(C#N)cc4)c3C)c12` [Example 244, N^4-[1-(4-cyanobenzyl)-5-methyl-3-(trifluoromethyl)-1H-pyrazol-4-yl]-5-methylquinoline-2,4-dicarboxamide], the IC50 is 17.6 nM.
On to `Cc1c(NC(=O)c2cc(C(N)=O)nc3cccc(F)c23)c(C(F)(F)F)nn1Cc1ccc(F)cc1C#N` [Example 1656], for which the IC50 came to 12.5 nM.
On to `COc1cc(C(=O)Nc2c(C)nn(Cc3ccc(C#N)cc3F)c2C)c2ccccc2n1` [Example 1352], for which the concentration for half-maximal inhibition (IC50) was found to be 35.1 nM.
Under `COc1ccccc1CNC(=O)c1ccc(Cn2nc(C)c(NC(=O)c3cc(C(F)(F)F)nc4ccc(Br)cc34)c2C)cc1` [Example 1183] stands 241 nM; under `Cc1ccc(Cn2nc(C)c(NC(=O)c3cc(C(F)(F)F)nc4ccc(Br)cc34)c2C)cc1` [Example 54, 6-bromo-N-[3,5-dimethyl-1-(4-methylbenzyl)-1H-pyrazol-4-yl]-2-(trifluoromethyl)quinoline-4-carboxamide], 58.3 nM; under `Cc1nn(Cc2ccc(F)cc2)c(C)c1NC(=O)c1cc(C2CC2)nc2ccc(F)cc12` [Example 10, 2-cyclopropyl-6-fluoro-N-[1-(4-fluorobenzyl)-3,5-dimethyl-1H-pyrazol-4-yl]quinoline-4-carboxamide], 6.4 nM.
With `Cc1c(NC(=O)c2cc(C(N)=O)nc3cc(F)ccc23)c(C(F)(F)F)nn1Cc1ccc(CC#N)cc1` [Example 403, N^4-{1-[4-(cyanomethyl)benzyl]-5-methyl-3-(trifluoromethyl)-1H-pyrazol-4-yl}-7-fluoroquinoline-2,4-dicarboxamide], the IC50 turned out to be 1 nM.
`Cc1nn(Cc2ccc(C(=O)NCCN3CC4(CCS4(=O)=O)C3)cc2)c(C)c1NC(=O)c1cc(C(F)(F)F)nc2ccc(Br)cc12` [Example 1049]: the concentration for half-maximal inhibition (IC50) worked out at 11.7 nM.
Regarding `Cc1c(NC(=O)c2cc(C(F)(F)F)nc3c(Cl)cc(Cl)cc23)c(C(F)(F)F)nn1Cc1ccc(F)c(F)c1` [Example 199, 6,8-dichloro-N-[1-(3,4-difluorobenzyl)-5-methyl-3-(trifluoromethyl)-1H-pyrazol-4-yl]-2-(trifluoromethyl)quinoline-4-carboxamide], the 50% inhibitory concentration (IC50) is 441 nM.
